ChEMBL document CHEMBL2177054, “Rational design of conformationally constrained cyclopentapeptide antagonists for C-x-C chemokine receptor 4 (CXCR4)” (J Med Chem, 2012)

Target: C-X-C chemokine receptor type 4 (Homo sapiens, UniProt P61073)
Assay: Antagonist activity against human CXCR4 expressed in COS7 cells assessed as inhibition of CXCL12-induced myo-[3H]inositol production by scintillation counting
Type: functional, cell-based, COS-7

Sequence of C-X-C chemokine receptor type 4 (P61073 whole entry): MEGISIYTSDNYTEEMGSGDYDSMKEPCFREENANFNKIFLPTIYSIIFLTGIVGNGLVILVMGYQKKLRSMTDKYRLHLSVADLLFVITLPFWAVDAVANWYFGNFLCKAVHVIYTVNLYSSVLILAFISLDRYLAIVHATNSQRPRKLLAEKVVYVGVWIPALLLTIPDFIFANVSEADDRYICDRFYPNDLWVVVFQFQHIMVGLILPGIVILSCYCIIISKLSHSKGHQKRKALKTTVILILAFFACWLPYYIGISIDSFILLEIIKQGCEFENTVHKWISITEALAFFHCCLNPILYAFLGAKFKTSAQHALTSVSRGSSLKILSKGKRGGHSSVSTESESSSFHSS

EC50	SMILES
15 µM	N=C(N)NCCC[C@@H]1NC(=O)[C@H](Cc2ccc(N)cc2)NC(=O)[C@@H](Cc2ccc(O)cc2)NC(=O)CNC(=O)[C@H](Cc2ccc3ccccc3c2)NC1=O
0.68 µM	N=C(N)NCCC[C@@H]1NC(=O)[C@H](Cc2ccc(NC(=N)N)cc2)NC(=O)[C@@H](Cc2ccc(O)cc2)NC(=O)CNC(=O)[C@H](Cc2ccc3ccccc3c2)NC1=O
> 100 µM	NC(=O)NCCC[C@@H]1NC(=O)[C@H](CCCNC(N)=O)NC(=O)[C@@H](Cc2ccc(O)cc2)NC(=O)CNC(=O)[C@H](Cc2ccc3ccccc3c2)NC1=O
> 100 µM	N=C(N)NCCC[C@@H]1NC(=O)[C@@H](Cc2ccc(O)cc2)NC(=O)CNC(=O)[C@H](Cc2ccc3ccccc3c2)NC(=O)[C@H](CCCNC(N)=O)NC1=O
2.9 µM	N=C(N)NCCC[C@@H]1NC(=O)[C@H](CCCNC(N)=O)NC(=O)[C@@H](Cc2ccc(O)cc2)NC(=O)CNC(=O)[C@H](Cc2ccc3ccccc3c2)NC1=O
36 µM	N=C(N)NCCC[C@@H]1NC(=O)CNC(=O)[C@@H](Cc2ccc(O)cc2)NC(=O)CNC(=O)[C@H](Cc2ccc3ccccc3c2)NC1=O
3.6 µM	CC1(C)NC(=O)[C@@H](Cc2ccc(O)cc2)NC(=O)CNC(=O)[C@H](Cc2ccc3ccccc3c2)NC(=O)[C@H](CCCNC(=N)N)NC1=O
5.4 µM	N=C(N)NCCC[C@@H]1NC(=O)C2(CCCCC2)NC(=O)[C@@H](Cc2ccc(O)cc2)NC(=O)CNC(=O)[C@H](Cc2ccc3ccccc3c2)NC1=O
0.56 µM	N=C(N)NCCC[C@@H]1NC(=O)C2(CCNCC2)NC(=O)[C@@H](Cc2ccc(O)cc2)NC(=O)CNC(=O)[C@H](Cc2ccc3ccccc3c2)NC1=O
0.26 µM	N=C(N)NCCC[C@@H]1NC(=O)C2(CCN(C(=N)N)CC2)NC(=O)[C@@H](Cc2ccc(O)cc2)NC(=O)CNC(=O)[C@H](Cc2ccc3ccccc3c2)NC1=O
7.2 µM	N=C(N)NCCC[C@@H]1NC(=O)[C@H](Cc2ccccc2)NC(=O)[C@@H](Cc2ccc(O)cc2)NC(=O)CNC(=O)[C@H](Cc2ccc3ccccc3c2)NC1=O
